From PubChem BioAssay AID1845211 (Molecular Pharmacology Branch, DTP, NCI, 2023)
Several values for one entry are separate records, joined by “and”; a condition that tells them apart may be missing. Identical values can stand only once. Values belong to the molecule of their own block, whether it stands above or below them.

System: NCI-H322M multicellular tumor spheroids, viability (% test/control)
Experiment: Anticancer human tumor NCI-H322M cell line growth inhibition;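 as to viability, T/C: spheroids exposed to compound for seven days before readout; 100% = DMSO vehicle control wells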
Settings: for viability, T/C: stronger effect = lower value
Text: Multicellular complex tumor spheroid response to DNA repair inhibitors in combination with DNA-damaging drugs
This study explores the anticancer activities of DNA-damaging drugs and inhibitors of DNA damage repair, both as single agents and in combinations. Complex tumor spheroids comprised of malignant cells, endothelial cells and mesenchymal stem cells served as an in vitro model for human solid tumors. This model system incorporates physiologically relevant features and patient-derived or established malignant cell lines with clinically relevant genetic alterations from many tumor types. Twenty-six patient-derived or established malignant cell lines were evaluated representing sarcoma, melanoma, small cell lung cancer (SCLC), non-small cell lung cancer (NSCLC), as well as bladder, ovarian and pancreatic cancers. The concentration ranges selected for each drug and investigational agent were based upon clinically achievable concentrations if the clinical Cmax of the agent was known.
Compounds. The drugs and compounds olaparib (NSC753686), talazoparib (NSC767125), berzosertib (NSC777718), elimusertib (NSC800525), nedisertib (NSC802822), VX-984 (NSC792969), AZD-1390 (NSC803789), temozolomide (NSC362856), topotecan (NSC609699), trabectedin (NSC813783), staurosporine (NSC755774), and gemcitabine (NSC613327) were obtained from the National Cancer Institute (NCI) Developmental Therapeutics Program Chemical Repository. The FDA-approved anticancer drug set is available from the Developmental Therapeutics Program at https://dtp.cancer.gov/organization/dscb/obtaining/available_plates.htm. […] The stock solutions were prepared in dimethyl sulfoxide (DMSO, Sigma-Aldrich, St. Louis, MO, cat. D2650) at 400-fold the tested concentration and stored at -70 degrees C. Prior to their use, the stock solutions were diluted in fresh medium and the final DMSO concentration in the assay was 0.25% (v/v). All drugs and investigational agents were tested over a range starting from a high concentration at or near the clinical Cmax and decreasing in half-log increments. If the clinical Cmax for an agent had not been determined, the highest concentration tested was 10 microM.
Cell Lines. The patient-derived cancer cell (PDC) lines: 156681-154-R-J1-PDC, 283228-195-R-J1-PDC, 287954-098-R-J1-PDC, 292921-168-R-J2-PDC, 349418-098-R-PDC, 425362-245-T-J1-PDC, 556581-035-R-J1-PDC, and BL0293-F563-PDC were received from the NCI Patient-Derived Models Repository (PDMR, https://pdmr.cancer.gov). The established cell lines HS-SY-2 (RRID:CVCL_8719), MPNST, and SYO-1 (RRID:CVCL_7146) were obtained from the Sloan Kettering Institute. The alveolar soft parts sarcoma cell line ASPS-1 (RRID:CVCL_S738) was established at the NCI and grown from internal seed stocks. The following established cell lines were purchased from the American Type Culture Collection (ATCC, Manassas, VA): G-401 (ATCC, cat. CRL-1441, RRID:CVCL_0270), SW982 (ATCC, cat. HTB-93, RRID:CVCL_1734), VA-ES-BJ (ATCC, cat. CRL-2138, RRID:CVCL_1785), NCI-H719 (ATCC, cat. CRL-5837, RRID:CVCL_1582), NCI-H196 (ATCC, cat. CRL-5823, RRID:CVCL_1509), NCI-H841 (ATCC, cat. CRL-5845, RRID:CVCL_1595), NCI-H1618 (ATCC, cat. CRL-5879, RRID:CVCL_1480), NCI-H1876 (ATCC, cat. CRL-5902, RRID:CVCL_1503), DMS 114 (ATCC, cat. CRL-2066; RRID:CVCL_1174), NCI-H211 (ATCC, cat. CRL-5824; RRID:CVCL_1529), and SW 1271 (ATCC, cat. CRL-2177, RRID:CVCL_1716). The small cell lung cancer cell line COR-L88 was purchased from Sigma-Aldrich (cat. 92031917-1VL, RRID:CVCL_1141). The non-small cell lung cancer cell lines NCI-H226 (RRID:CVCL_1544) and NCI-H322M (RRID:CVCL_1557) were established at the NCI and grown from internal seed stocks. Pooled donor human umbilical vein endothelial cells (HUVEC, Lonza, cat. CC-2519) and human mesenchymal stem cells (hMSC, Lonza, cat. PT-2501) were purchased from Lonza (Walkersville, MD).
Cell Culture. All cells were maintained in an incubator at 37 degrees C and 5% CO2 with 95% humidity. […]

Compound: Cn1ncnc1[C@H]1c2n[nH]c(=O)c3cc(F)cc(c23)N[C@@H]1c1ccc(F)cc1
viability, T/C (compound 0.00949 µM): 90.1% and 93.2% and 85.8%
viability, T/C (compound 0.03 µM): 88.6% and 91.6% and 90.2%
viability, T/C (compound 0.0949 µM): 79.9% and 77.7% and 81%
viability, T/C (compound 0.3 µM): 95.3% and 83.4% and 83%
viability, T/C (compound 0.949 µM): 81.9% and 79.7% and 75.5%
viability, T/C (compound 3 µM): 70% and 66.2% and 68.7%
IC50 (curve of compound): > 3 µM

IC50 (compound alone, run of 12/02/2019): > 100 µM
Compound: Cn1nnc2c(C(N)=O)ncn2c1=O

Compound: O=C(c1cc(Cc2n[nH]c(=O)c3ccccc23)ccc1F)N1CCN(C(=O)C2CC2)CC1
viability, T/C (compound 0.0949 µM): 107% and 88% and 75.1%
viability, T/C (compound 0.3 µM): 98.5% and 83.7% and 107%
viability, T/C (compound 0.949 µM): 118% and 98.6% and 101%
viability, T/C (compound 3 µM): 97.2% and 80.6% and 97.6%
viability, T/C (compound 9.49 µM): 97% and 89.6% and 92.4%
viability, T/C (compound 30 µM): 103% and 87% and 104%
IC50 (curve of compound): > 30 µM

Compound: [2H]c1nc(C)nc([2H])c1-c1cc(NC[C@@H](C)c2cccc3c(C(=O)NC)ccnc23)ncn1
viability, T/C (compound 0.0316 µM): 78.5% and 92.3% and 103%
viability, T/C (compound 0.1 µM): 84.9% and 85.2% and 114%
viability, T/C (compound 0.316 µM): 81% and 104% and 97.4%
viability, T/C (compound 1 µM): 85.9% and 101% (2×)
viability, T/C (compound 3.16 µM): 84.4% and 87.3% and 106%
viability, T/C (compound 10 µM): 88.4% and 85.9% and 108%
IC50 (curve of compound): > 10 µM

Compound: O=C(c1cc(Cc2n[nH]c(=O)c3ccccc23)ccc1F)N1CCN(C(=O)C2CC2)CC1 + CC[C@@]1(O)C(=O)OCc2c1cc1n(c2=O)Cc2cc3c(CN(C)C)c(O)ccc3nc2-1
IC50 (curve of first compound, second compound 0.003 µM): > 30 µM
IC50 (curve of first compound, second compound 0.00949 µM): > 30 µM
IC50 (curve of first compound, second compound 0.03 µM): > 30 µM
IC50 (curve of first compound, second compound 0.0949 µM): > 30 µM
IC50 (curve of first compound, second compound 0.3 µM): < 0.0949 µM
viability, T/C (second compound 0.003 µM, first compound 0.0949 µM): 77.7%
viability, T/C (second compound 0.003 µM, first compound 0.3 µM): 78.8%
viability, T/C (second compound 0.003 µM, first compound 0.949 µM): 79.2%
viability, T/C (second compound 0.003 µM, first compound 3 µM): 87.3%
viability, T/C (second compound 0.003 µM, first compound 9.49 µM): 95.8%
viability, T/C (second compound 0.003 µM, first compound 30 µM): 78.2%
viability, T/C (second compound 0.00949 µM, first compound 0.0949 µM): 85.7%
viability, T/C (second compound 0.00949 µM, first compound 0.3 µM): 73%
viability, T/C (second compound 0.00949 µM, first compound 0.949 µM): 71.6%
viability, T/C (second compound 0.00949 µM, first compound 3 µM): 77%
viability, T/C (second compound 0.00949 µM, first compound 9.49 µM): 66.9%
viability, T/C (second compound 0.00949 µM, first compound 30 µM): 83.5%
viability, T/C (second compound 0.03 µM, first compound 0.0949 µM): 67.5%
viability, T/C (second compound 0.03 µM, first compound 0.3 µM): 69.7%
viability, T/C (second compound 0.03 µM, first compound 0.949 µM): 78.4%
viability, T/C (second compound 0.03 µM, first compound 3 µM): 78.5%
viability, T/C (second compound 0.03 µM, first compound 9.49 µM): 78.5%
viability, T/C (second compound 0.03 µM, first compound 30 µM): 75.4%
viability, T/C (second compound 0.0949 µM, first compound 0.0949 µM): 56.4%
viability, T/C (second compound 0.0949 µM, first compound 0.3 µM): 57.6%
viability, T/C (second compound 0.0949 µM, first compound 0.949 µM): 60.5%
viability, T/C (second compound 0.0949 µM, first compound 3 µM): 51.4%
viability, T/C (second compound 0.0949 µM, first compound 9.49 µM): 50.5%
viability, T/C (second compound 0.0949 µM, first compound 30 µM): 61.1%
viability, T/C (second compound 0.3 µM, first compound 0.0949 µM): 42.5%
viability, T/C (second compound 0.3 µM, first compound 0.3 µM): 48.8%
viability, T/C (second compound 0.3 µM, first compound 0.949 µM): 45.3%
viability, T/C (second compound 0.3 µM, first compound 3 µM): 49.6%
viability, T/C (second compound 0.3 µM, first compound 9.49 µM): 55.1%
viability, T/C (second compound 0.3 µM, first compound 30 µM): 46.5%
